Test results taken from patent US20230190707A1, “COMPOSITIONS AND METHODS FOR ENHANCING CANCER IMMUNOTHERAPY” (FRED HUTCHINSON CANCER CENTER, priority 2020, published 2023).

Tests used:
[1] = Peripheral blood counts after extended treatment; settings: three weeks, with or without anti-PD1
Protocol: Animals were subcutaneously engrafted on bilateral flanks with tumor cells (MC38 1×10^6, B16-F10 0.5×10^6 and LLC 0.25×10^6 cells unless otherwise specified) on day 0, and treated continuously with splicing inhibitors (MS-023 50 mg/kg i.p., indisulam 25 mg/kg i.v. or vehicle) daily for 5 of 7 weekly days starting from day +3 of tumor challenge. […] Mice were weighed weekly for weight-based drug dosing.

[2] = tested on: asymmetric dimethyl arginines (ADMA); assay: ADMA levels by western blot after MS-023; type: cell-based, mouse; settings: MC38 cells, 5 μM for 96 hours
Protocol: Unless otherwise specified, cell lines were treated with splicing inhibitors at the indicated concentrations for 96 hours in vitro, harvested and washed three times with PBS in excess to remove all drug, and then used for downstream analyses and/or subsequent studies, including phenotyping, RNA-seq analyses, continued growth in vitro, or tumor challenge in vivo into syngeneic animals.
(§1) Western blotting was performed as per standard techniques. Anti-RBM39 (Atlas Antibodies, Cat. HPA001591 or Bethyl laboratories, Cat. A300-291A) were used to detect RBM39 degradation. ADMA and SDMA levels were determined using antibodies from Cell Signaling Technologies (Cat. 13222S and Cat. 135225). Actin antibody (clone AC-15) was obtained from MilliporeSigma (Cat. A5441-.2ML). Densitometry of RBM39 and actin loading control was performed using ImageJ software in order to calculate RBM39 degradation IC50 values.

RBM39 [3] = biological target: T1, RBM39 (Mus musculus, UniProt Q6PFH3+Q8VH51); assay: RBM39 degradation, western blot densitometry; type: cell-based
T1 construct: endogenous in cells; host or cells: B16-F10 (also MC38, CT26, LLC)
Protocol: as §1

[4] = tested on: B16-F10, MC38, CT26, and LLC cells; assay: Cell growth/viability IC50 (CellTiter-Glo); type: cell-based; settings: Mus musculus; range across B16-F10, MC38, CT26, LLC cells
Protocol: Cell lines were grown with half-log10 concentrations of the indicated drug in 4 to 8 technical replicates under standard conditions until the control condition (DMSO or vehicle) was confluent by microscopy. For tumor cell lines, viable cells were quantified via the CellTiter-Glo® assay (Promega Cat. G7573) as per manufacturer instructions. For the ex vivo proliferation of T cells, viable cells were instead quantified via flow cytometry using counting beads. The percentage or number of viable cells with drug treatment was calculated relative to DMSO control (as 100%). […] For absolute cell number, Annexin V+, CD25+, and PD1+ flow cytometry data presented in Figure S4, dose-response models and IC50 values were computed using the R language's dre package (Ritz, C., et al. (2015). Dose-Response Analysis Using R. PLoS One 10, e0146021).

[5] = tested on: lung and colonic tissue, splenic T cells; assay: RNA-seq of non-tumor tissues from indisulam-treated animals; type: in vivo, mouse
Protocol: Bulk lung and colon were homogenized using a Qiagen TissueRuptor. For all tissues and cell types, RNA was extracted using an RNeasy kit (Qiagen, Frederick, Md.) and quantified using a NanoDrop 8000 (ThermoFisher Scientific). A minimum of 500 ng of high-quality RNA (as determined by Agilent Bioanalyzer) per sample or replicate was used for library preparation. Poly(A)-selected, strand-specific (dUTP method) Illumina libraries were prepared with a modified TruSeq protocol and sequenced on the Illumina HiSeq 2000 (˜100M 2×101 bp paired-end reads per sample or replicate).
RNA-seq analysis was performed as previously described (Dvinge, H., et al. (2014). Sample processing obscures cancer-specific alterations in leukemic transcriptomes. Proc Natl Acad Sci USA 111, 16802-16807, incorporated herein by reference in its entirety). […] Aligned reads from these two mapping steps were merged to generate final BAM files for all subsequent analyses.
MISO v2.0 was used to quantify all expression of isoforms arising from exon skipping (cassette exons), competing 5′ splice site selection, competing 3′ splice site selection, and annotated intron retention. […]

RBM39 [6] = biological target: T1, RBM39; assay: RBM39 protein in tissues after in vivo indisulam; settings: therapeutic indisulam doses
Protocol: as §1
(§2) Mice were weighed weekly for weight-based drug dosing.

[7] = tested on: MHC I, MHC II, PD-L1, IFNγ receptors, TNF receptors, DR5; assay: Cell-surface marker expression after drug treatment; type: cell-based, mouse
LLC tumors = assay: Therapeutic treatment with indisulam and anti-PD1, LLC tumors; type: in vivo, mouse; settings: syngeneic C57BL/6; indisulam 25 mg/kg i.v.; anti-PD1 250 μg
Source text: as §2

SMILES	lymphocytes, neutrophils, or other peripheral blood counts [1]	asymmetric dimethyl arginines (ADMA) [2]	RBM39 protein following drug removal (RBM39 [3]; ex vivo 1 μM for four days followed by drug washout)	DC50 (RBM39 [3]; range across B16-F10, MC38, CT26, LLC cells, 24 hours, read-out: IC50 values for RBM39 degradation) [µM]	IC50 [4] [µM]	splicing changes in lung, colonic tissue and splenic T cells [5]	RBM39 protein in tumoral as well as immune tissues in vivo (RBM39 [6])	cell-surface expression of MHC I, MHC II, PD-L1, or cytokine or death receptors [7]	growth of LLC tumors in vivo (LLC tumors)
CC(C)Oc1ccc(-c2c[nH]cc2CN(C)CCN)cc1 [MS-023]	negligible effects	globally reduced	–	–	–	–	–	–	–
NS(=O)(=O)c1ccc(S(=O)(=O)Nc2cccc3c(Cl)c[nH]c23)cc1 [indisulam]	–	–	sustained suppression of RBM39 protein	0.06 to 1	2.1 to 73	only mild changes in splicing	on-target RBM39 protein reduction	did not change	inhibited tumor growth
